Data taken from patent US20050221381A1, “Method for isolating ligands” (priority 2002, published 2005).
Like-named read-outs stand apart in the source and are kept apart here.

Experiments:
[1] = system: HLA-DRB1*0401-transgenic mice splenocytes; type: in vivo, mouse; design: key to DRB1*0401 mice total SC (T cell response) / DRB1*0401 mice CD4+ (T cell response): −: no binding/T cell response; +/−: weak binding/T cell response; +: intermediate binding/T cell response; ++: strong binding/T cell response
[2] = target: T1, soluble DRB1*0401 molecules (DR4) (Homo sapiens, UniProt P01903+P01911, A100K/A169T/F76Y/I96L/K127E/L162R/M171V/N62H/P40V/Q125Y/R42H/S133A/S149N/S66Y/V115G/V209L/W38E); type: binding; design: key: −: no binding; +/−: weak binding; +: intermediate binding; ++: strong binding
T1 construct: Soluble HLA class I A*0201 and HLA class II DRA1*0101/DRB1*0101/Ii, DRA1*0101/DRB1*0401/Ii and DRA1*0101/DRB1*0404/Ii molecules were expressed in SC-2 cells; made in house; host or cells: SC-2 cells

[3] = system: DRB1*0401, DRB1*0101, DRB1*0404, DRB1*0701 and DRB1*1101; assay: Binding to soluble HLA molecules of different allels (promiscuity); design: species or system human
Protocol: In peptide binding reactions HLA molecules were used in a concentration of 0.5 μM, and each single peptide was added in 10-fold molar excess (5 μM) if not mentioned differently. […] The reaction was performed in PBS buffer (pH 7.4) at room temperature for 48 hours in the presence of a protease inhibitor cocktail (Roche) and 0.1% octyl-b-D-glucopyranoside (Sigma).
Peptide binding was evaluated in an SDS-stability assay (Gorga et al., 1987): trimeric HLA class II ab-peptide complexes are resistant to SDS and consequently appear as ˜60 kDa band in SDS-PAGE Western blot analysis. Individual HLA class II α and β chains not stabilized by a peptide binding with intermediate to high affinity migrate as ˜35 kDa and ˜30 kDa bands, respectively.
(§1) The binding affinities to DRB1*0701 and DRB1*1101 were tested by a peptide-competition assay (Reay et al., 1992). Briefly, binding of the biotinylated CLIP peptide (reference peptide) has been used for monitoring of HLA:peptide complex formation. […] In the case of lower affinity peptides they should be added in excess to the reference peptide to compete for occupancy of HLA binding grove. […] Alternatively, comparing of the amount of reference peptide bound to HLA molecules in the presence or absence of competitor peptide one can determine the binding activity of the peptide of interest.
(§2) In the present peptide-competition assay conditions of peptide binding were similar to described above. Soluble HLA molecules were used in the concentration of 0.5 μM and biotinylated CLIP was added to all samples in the final concentration of 2 μM. Competitor peptides were added in three different concentrations: 0.25, 5 and 100 μM. Binding reaction was performed in PBS buffer (pH 7.4) for 18 hours at 37° C. […] Briefly, MaxiSorb 96-well plates (Nunc, Denmark) were coated with mouse anti-αβ antibody L243 (purified from ATCC HB-55) by overnight incubation with 50 μl of 10 μg/ml dilution in PBS at 4° C. Non-specific binding to the plastic was blocked by incubation with T-PBS containing 3% of BSA for 2 hours at 37° C. and binding reactions were then “captured” for 2 hours at room temperature. […] The optical density at 405 nm was measured on a microplate reader SUNRISE (Tecan).
Some of the identified DRB1*0401 binding peptides, as well as others chosen by prediction algorithms were also tested for binding to soluble HLA molecules of different allels: DRB1*0101, DRB1*0404, DRB1*0701 and DRB1*1101 (Table 3).

[4] = target: T1, soluble DRB1*0401 molecules (DR4); type: binding; design: key to Binding to DRB1 *0401: −: no binding/T cell response; +/−: weak binding/T cell response; +: intermediate binding/T cell response; ++: strong binding/T cell response
[5] = target: T2, soluble DRB1*0404 molecules (Homo sapiens, UniProt P01903+P01911, A100R/A169T/F76Y/I96L/K127E/L162R/M171V/N62H/P40V/Q125Y/R42H/S133A/S149N/S66Y/V209L/W38E); assay: Peptide binding assay, SDS-stability assay; design: key: −: no binding; +/−: weak binding; +: intermediate binding; ++: strong binding; conditions: individual pp65 15mer
T2 construct: Soluble HLA class I A*0201 and HLA class II DRA1*0101/DRB1*0101/Ii, DRA1*0101/DRB1*0401/Ii and DRA1*0101/DRB1*0404/Ii molecules were expressed in SC-2 cells; made in house; host or cells: SC-2 cells

[6] = target: T1, soluble DRB1*0401 molecules (DR4); type: binding; design: key: +++: high binding affinity; ++: moderate binding affinity; +: low binding affinity; −: no binding; conditions: individual pp65 15mer, SDS-stability assay
[7] = target: DRB1*1101 (Homo sapiens, UniProt P01903+P01911, A100R/A169T/A87E/I96F/K41T/L162R/M171V/P40S/Q125H/Q178H/Q39Y/Q99D/R42S/S66Y/T262R/V115G/W38E); assay: Peptide-competition assay with biotinylated CLIP peptide (ELISA); type: binding; design: key: −: no binding/T cell response; +/−: weak binding/T cell response; +: intermediate binding/T cell response; ++: strong binding/T cell response; conditions: for Binding to DRB1*1101: longer peptides no. 1500-1505, peptide-competition assay
Protocol: as §1, §2

[8] = target: DRB1*0701 (Homo sapiens, UniProt P01903+P01911, A100R/A102G/A103Q/D57E/D86V/E43K/F76Y/K127E/L162R/M171V/P40G/Q125H/Q99D/R33Q/R42Y/R54Q/S133A/S66F/T210M/V115G/Y107V/Y59L/Y89S); assay: as above; type: binding; design: key: −: no binding/T cell response; +/−: weak binding/T cell response; +: intermediate binding/T cell response; ++: strong binding/T cell response
Protocol: as §1, §2

[9] = target: T1, soluble DRB1*0401 molecules (DR4); type: binding; design: key: −: no binding/T cell response; +/−: weak binding/T cell response; +: intermediate binding/T cell response; ++: strong binding/T cell response
[10] = target: T2, soluble DRB1*0404 molecules; assay: Peptide binding assay, SDS-stability assay; design: key: −: no binding/T cell response; +/−: weak binding/T cell response; +: intermediate binding/T cell response; ++: strong binding/T cell response
[11] = target: T3, soluble DRB1*0101 molecules (Homo sapiens, UniProt P01903+P01911, A100R/D57E/F55L/F60I/F76Y/I96L/L162R/M171V/P40L/Q125E/R42F/V115G/Y59C); assay: Peptide binding assay, SDS-stability assay; design: key: −: no binding/T cell response; +/−: weak binding/T cell response; +: intermediate binding/T cell response; ++: strong binding/T cell response
T3 construct: Soluble HLA class I A*0201 and HLA class II DRA1*0101/DRB1*0101/Ii, DRA1*0101/DRB1*0401/Ii and DRA1*0101/DRB1*0404/Ii molecules were expressed in SC-2 cells; made in house; host or cells: SC-2 cells

[12] = longer peptides no. 1500-1505, peptide-competition assay
[13] = IFN-gamma ELISpot, enriched CD4+ fraction of splenocytes of HLA-DR4 transgenic mice vaccinated with the longer peptide, ex vivo re-stimulation
[14] = IFN-gamma ELISpot, total splenocytes of HLA-DR4 transgenic mice vaccinated with the longer peptide, ex vivo re-stimulation
[15] = individual pp65 15mer, SDS-stability assay

Sequence	Affinity for several HLA molecules (promiscuity) [3]	Binding to DRB1*0404 [5]	Binding to DRB1 1101 [7]	Binding to DRB1 *0701 ([8]; DRB1*0701)	Binding to DRB1*0404 ([10]; soluble DRB1*0404 molecules)	Binding to DRB1*0101 ([11]; soluble DRB1*0101 molecules)	DRB1*0401 mice CD4+ (T cell response) [1, 13]	DRB1*0401 mice total SC (T cell response) [1, 14]	Binding to DRB1 *0401 ([4]; soluble DRB1*0401 molecules)	other results
GPQYSEHPTFTSQYR [Peptide 360]	affinity for at least two HLA molecules									DRB1*0401 mice CD4+ (T cell response) ([1]; mouse, in vivo): ++; DRB1*0401 mice total SC (T cell response) ([1]; mouse, in vivo, sc): ++; Binding to DRB1*0401 [2]: +/−; Binding to DRB1 *0401 [4]: +/−
LARNLVPMVATVQGQ [Peptide 492]		++								Binding to DRB1*0401 [6]: −
LLQRGPQYSEHPTFTSQYRIQG [Peptide 1502]			++	−	−	−				Binding to DRB1*1101 [7]: ++; Binding to DRB1 *0701 [8, 12]: −; CD4+ / CD8+ response of separated splenocytes ([1]; mouse, in vivo): simultaneous CD4+ and CD8+ response; DRB1*0401 mice CD4+ (T cell response) ([1]; mouse, in vivo): ++; DRB1*0401 mice total SC (T cell response) ([1]; mouse, in vivo, sc): + and ++; Binding to DRB1*0401 [9]: +; Binding to DRB1*0404 ([10]; longer peptides no. 1500-1505): −; Binding to DRB1*0101 ([11]; longer peptides no. 1500-1505): −; Binding to DRB1 *0401 [4]: +
PSLILVSQYTPDSTPCHRGDNQLQVQHTR [Peptide 1500]			−	−	++	+	+	+	++	Binding to DRB1*1101 [7]: −; Binding to DRB1 *0701 [8, 12]: −; DRB1*0401 mice CD4+ (T cell response) ([1]; CD4+ fraction of splenocytes, IFN-γ ELISpot): +; DRB1*0401 mice total SC (T cell response) ([1]; total splenocytes, ex vivo restimulation, IFN-γ ELISpot): +; Binding to DRB1*0401 ([9]; longer peptides no. 1500-1505): ++; Binding to DRB1*0404 ([10]; longer peptides no. 1500-1505): ++; Binding to DRB1*0101 ([11]; longer peptides no. 1500-1505): +
RNLVPMVATVQGQNL [Peptide 494]		++								Binding to DRB1*0401 [6]: −
TRGRLKAESTVAPEE [Peptide 452]	affinity for at least two HLA molecules	+	−	−	++	++	++	+	+	Binding to DRB1*0401 [2, 15]: +
VSQYTPDSTPCHRGD [Peptide 58]	affinity for at least two HLA molecules		−	−	−	+	+	++	++	Binding to DRB1*0401 [2, 15]: ++
